# Molecular target: T1, Dual specificity protein kinase TTK (Homo sapiens, UniProt P33981)
# T1 sequence (P33981 whole entry): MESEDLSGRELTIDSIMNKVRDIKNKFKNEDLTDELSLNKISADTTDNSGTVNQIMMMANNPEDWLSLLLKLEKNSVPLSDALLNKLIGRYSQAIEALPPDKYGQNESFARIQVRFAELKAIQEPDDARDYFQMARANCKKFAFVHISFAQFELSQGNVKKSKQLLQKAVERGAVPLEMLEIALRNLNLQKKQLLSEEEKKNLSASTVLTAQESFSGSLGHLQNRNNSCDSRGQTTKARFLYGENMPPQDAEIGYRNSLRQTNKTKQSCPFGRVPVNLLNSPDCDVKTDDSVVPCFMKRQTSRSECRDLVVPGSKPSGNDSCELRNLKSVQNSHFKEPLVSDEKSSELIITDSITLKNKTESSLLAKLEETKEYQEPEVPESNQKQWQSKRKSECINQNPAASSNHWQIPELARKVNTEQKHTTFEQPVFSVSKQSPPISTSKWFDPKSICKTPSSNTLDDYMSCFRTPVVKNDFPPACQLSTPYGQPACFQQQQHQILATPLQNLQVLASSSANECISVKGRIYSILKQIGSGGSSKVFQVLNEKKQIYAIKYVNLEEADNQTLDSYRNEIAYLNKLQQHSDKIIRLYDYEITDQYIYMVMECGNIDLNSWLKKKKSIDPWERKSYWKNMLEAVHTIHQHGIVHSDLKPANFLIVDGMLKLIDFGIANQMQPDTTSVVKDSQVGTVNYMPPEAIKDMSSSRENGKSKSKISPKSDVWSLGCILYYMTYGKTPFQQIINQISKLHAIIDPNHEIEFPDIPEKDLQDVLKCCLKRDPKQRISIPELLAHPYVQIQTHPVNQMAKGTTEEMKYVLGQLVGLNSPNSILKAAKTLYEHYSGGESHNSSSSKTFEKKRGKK
# Assay: Enzyme Assay: The inhibitory activity of compounds against AURKA, AURKB, JAK1, JAK2 and JAK3 was determined in Z′-LYTE® assays run by ThermoFisher Scientific as part of their SelectScreen Biochemical Kinase Profiling Service. The Z′-LYTE biochemical assay format employs a fluorescence-based, coupled-enzyme format and is based on the differential sensitivity of phosphorylated and …
# Description: Enzyme Assay: The inhibitory activity of compounds against AURKA, AURKB, JAK1, JAK2 and JAK3 was determined in Z′-LYTE® assays run by ThermoFisher Scientific as part of their SelectScreen Biochemical Kinase Profiling Service. The Z′-LYTE biochemical assay format employs a fluorescence-based, coupled-enzyme format and is based on the differential sensitivity of phosphorylated and non-phosphorylated peptides to proteolytic cleavage. The peptide substrate is labeled with two fluorophores one at each end that make up a FRET pair. In the primary reaction, the kinase transfers the gamma-phosphate of ATP to a single tyrosine, serine or threonine residue in a synthetic FRET-peptide. In the secondary reaction, a site-specific protease recognises and cleaves non-phosphorylated FRET-peptides. Phosphorylation of FRET-peptides suppresses cleavage by the Development Reagent. Cleavage disrupts FRET between the donor (i.e., coumarin) and acceptor (i.e., fluorescein) fluorophore on the FRET-peptide, whereas uncleaved, phosphorylated FRET-peptides maintain FRET. A ratiometric method, which calculates the ratio (the Emission Ratio) of donor emission to acceptor emission after excitation of the donor fluorophore at 400 nm, is used to quantitate reaction progress. Both cleaved and uncleaved FRET-peptides contribute to the fluorescence signals and therefore to the Emission Ratio. The extent of phosphorylation of the FRET-peptide can be calculated from the Emission Ratio.
compound,measurement,value
Cc1cc2ncnn2cc1Nc1ncc2c(n1)n([C@H]1CC[C@@](C)(O)CC1)c(=O)n2C,IC50,0.501 µM
